B1: S1: initial shRNA switch targeting EGFP, theophylline aptamer; Table I (pCS630), SEQ ID NO: 48 (nucleic acid)
chain: GGUGCAGAUGAACUUCAGGGUCAGCUCGAGAUACCAGCAUCGACUCUUCGAUGCCCUUGGCAGCUCGGGCUGACCCUGACUAGAGCUGACCCUGAAUCAUCUGCACCUU

Test system: EGFP
Conditions: for Basal expression levels (%): GFP(%): median green fluorescence of transfected vs untransfected cells in same well, without ligand, HEK293T tTA-d2EGFP; for η (dynamic range): ratio of GFP(%) at high (3 mM) and low (1 μM) theophylline concentrations
Protocol: The functionality of shRNA switches was assessed in mammalian cell culture. Applicants transiently transfected plasmids harboring S1 and various switch controls transcribed from a U6 promoter into HEK293T cells stably expressing EGFP (Abbas-Terki et al, 2002).
In this example, Applicants systematically evaluated the tuning capabilities of shRNA switches with the aid of a mathematical model relating ligand concentration and target gene expression levels. Standard model parameters were incorporated to represent each chemical step from the proposed mechanism (Example 7). […] These assumptions yield the following relationship between relative expression levels of the target gene (f; output) and exogenous ligand concentration (L; input): f=1−e·fshRNA[1+KComp(1+KApt·L)]^−h, (1)
The power of this model lies in the ability to calculate realistic parameter values from a minimal set of experiments: fshRNA can be found in one experiment by measuring the relative knockdown of the target gene induced by an shRNA that contributes the shRNA stem, e can be calculated from basal expression levels from a few shRNA switches that strongly prefer the active conformation, and h can be calculated by generating a ligand response curve with one shRNA switch—as long as administration of the highest ligand concentration results in negligible knockdown of the target gene. The remaining model parameters, KComp and KApt, can be found from the same response curve used to calculate […], since varying KApt only changes the EC50 while varying KComp changes both EC50 and basal expression levels. A summary of the model parameters and how values are experimentally obtained are included in Table III below.
To investigate the validity of the model, Applicants experimentally determined model parameter values as described above: fshRNA was equated to the knockdown achieved with the original shRNA targeting EGFP (sh); e was calculated from the average basal expression levels produced by shRNA switches S5, S7, S9, and S10; and KComp, KApt, and h were determined by a model fit of the theophylline response curve for S1. […] The EC50 is related to KApt and KComp according to the following: EC50=(1+KComp^−1)KApt^−1, (4)
Cell culture and transfection. All cells were maintained at 37° C. in a 5% CO2-humidified incubator. HEK293T, HEK293, HeLa, and HEK293T tTA-d2EGFP cells were maintained in minimal essential medium (MEM) alpha media (Invitrogen) supplemented with 10% fetal bovine serum (FBS) (Invitrogen), whereas MDA-MB-231 cells were maintained in RMPI 1640 with glutamine (Invitrogen) supplemented with 10% FBS. Cells were transfected one day after seeding using Fugene 6 (Roche) according to the manufacturer's instructions, followed by the immediate addition of ligand. HEK293T tTA-d2EGFP were transfected with shRNA vector (250 ng), whereas cells lacking endogenous GFP were cotransfected with shRNA vector (250 ng) and the pcDNA3.1(+) (Invitrogen) harboring the d2EGFP gene (25 ng) (Clontech). One day post-transfection the media and ligand were replaced. Transfected cells were collected three days post-transfection for flow cytometry analysis.
Cell fluorescence analysis. Three days post-transfection, cells were trypsinized and subjected to flow cytometry analysis using the Cell Lab Quanta SC MPL (Beckman Coulter). Cells were first gated twice for (1) viability as assessed by electronic volume (EV) versus side scatter (SS) and (2) green fluorescence above autofluorescence to remove a nonfluorescent subpopulation.

Molecule | Basal expression levels (%) | η (dynamic range) | also measured
S14: EGFP shRNA switch, smaller theophylline aptamer; Table I (pCS908) (CTCGATACCAGCCGAAAGGCCCTTGGCAGCGAGCTGACCCTGCTAGA) | 14.3 | 2.86 | –
S22: EGFP shRNA switch, smaller theophylline aptamer; Table I (pCS1004) (CTCGATACCAGCCGAAAGGCCCTTGGCAGCGAGCTGACCCTGAACTAGA) | 35.0 | 2.73 | –
S12: EGFP shRNA switch with theophylline aptamer variant (shorter aptamer stem); Table I (pCS635) (CTCGAGATACCACCGAAAGGCCTTGGCAGCTCGGGCTGACCCTGACTAGA) | 13.4 | 4.06 | –
S15: EGFP shRNA switch, smaller theophylline aptamer; Table I (pC5909) (CTCGATACCAGCCGAAAGGCCCTTGGCAGCGGGCTGACCCTGCTAGA) | 11.2 | 2.56 | –
S18: EGFP shRNA switch, smaller theophylline aptamer; Table I (pCS942) (CTCGAGATACCAGCCGAAAGGCCCTTGGCAGCTCGAGCTGACCCTACTAGA) | 19.5 | 3.89 | –
S11: EGFP shRNA switch with theophylline aptamer variant (shorter aptamer stem); Table I (pCS634) (CTCGAGATACCAGCCGAAAGGCCCTTGGCAGCTCGGGCTGACCCTGACTAGA) | 20.0 | 4.20 | –
S10: EGFP shRNA switch, larger theophylline aptamer, combined switching strand changes from S4; Table I (pCS808) (CTCGATACCAGCATCGACTCTTCGATGCCCTTGGCAGCGAGCTGACCCTGACTAGA) | 29.4 | 3.60 | –
S13: optimized EGFP shRNA switch, smaller theophylline aptamer; Table I (pCS911) (CTCGAGATACCAGCCGAAAGGCCCTTGGCAGCTCGGGCTGACCCTGCTAGA) | 16.7 | 5.61 | –
S25: EGFP shRNA switch, smaller theophylline aptamer; Table I (pCS1063) (CTCGAGATACCAGCCGAAAGGCCCTTGGCAGCTCGGGCTGATCCTGACTAGA) | 11.8 | 2.63 | –
S17: EGFP shRNA switch, smaller theophylline aptamer; Table I (pCS941) (CTCGAGATACCAGCCGAAAGGCCCTTGGCAGCTCGAGCTGACCCTGCTAGA) | 17.5 | 3.12 | –
S20: EGFP shRNA switch, smaller theophylline aptamer; Table I (pCS1002) (CTCGAGATACCAGCCGAAAGGCCCTTGGCAGCTCGGGCTGACCCTGAAGCTAGA) | 49.8 | 1.75 | –
S24: EGFP shRNA switch, smaller theophylline aptamer; Table I (PCS1062) (CTCGAGATACCAGCCGAAAGGCCCTTGGCAGCTCGGGCTGATCCTGCTAGA) | 10.8 | 3.00 | –
S16: EGFP shRNA switch, smaller theophylline aptamer; Table I (pCS910) (CTCGATACCAGCCGAAAGGCCCTTGGCAGCGAGCTGACCCTGACTAGA) | 21.7 | 3.85 | –
S21: EGFP shRNA switch, smaller theophylline aptamer; Table I (pCS1003) (CTCGAGATACCAGCCGAAAGGCCCTTGGCAGCTCGGGCTGACCCTGGCTAGA) | 10.8 | 2.52 | –
S23: EGFP shRNA switch, smaller theophylline aptamer; Table I (pCS1061) (CTCGAGATACCAGCCGAAAGGCCCTTGGCAGCTCGAGCTGATCCTGCTAGA) | 16.6 | 3.30 | –
S19: EGFP shRNA switch, smaller theophylline aptamer; Table I (pCS1001) (CTCGAGATACCAGCCGAAAGGCCCTTGGCAGCTCGGGCTGACCCTGAACTAGA) | 38.3 | 2.38 | –
B1 | 33.8 | 2.71 | knockdown of EGFP (compared to original shRNA (sh) and scrambled shRNA (neg), flow cytometry): intermediate knockdown; e (RNAi processing efficiency) (from average basal expression levels of switches that highly favor the active conformation): 0.85; theophylline dependence of GFP levels (in the presence of theophylline): increased in a dose-dependent manner; KComp (partitioning coefficient between active and inactive conformations) (least-squares model fit of theophylline response curve): 0.17; h (Hill coefficient) (model fit of theophylline response curve): 1.33; KApt (association constant between ligand and formed aptamer) (model fit of theophylline response curve in cells): 0.016 µM⁻¹; EC50 (read-out: effective concentration to achieve 50% activity (EC50), theophylline concentration, GFP levels, HEK293T cells stably expressing EGFP): ~300 µM; fshRNA (relative knockdown by original shRNA) (set by separate transfection with original shRNA targeting EGFP (sh), parameter of the S1 transfer function): 0.94

Reference: US8367815B2, “Modular polynucleotides for ligand-controlled regulatory systems” (California Institute of Technology, priority 2007, dated 2013)
